Biological target: T1, GCS (Canis lupus familiaris, UniProt A0A8I3MXG6)
T1 sequence (A0A8I3MXG6 1-394): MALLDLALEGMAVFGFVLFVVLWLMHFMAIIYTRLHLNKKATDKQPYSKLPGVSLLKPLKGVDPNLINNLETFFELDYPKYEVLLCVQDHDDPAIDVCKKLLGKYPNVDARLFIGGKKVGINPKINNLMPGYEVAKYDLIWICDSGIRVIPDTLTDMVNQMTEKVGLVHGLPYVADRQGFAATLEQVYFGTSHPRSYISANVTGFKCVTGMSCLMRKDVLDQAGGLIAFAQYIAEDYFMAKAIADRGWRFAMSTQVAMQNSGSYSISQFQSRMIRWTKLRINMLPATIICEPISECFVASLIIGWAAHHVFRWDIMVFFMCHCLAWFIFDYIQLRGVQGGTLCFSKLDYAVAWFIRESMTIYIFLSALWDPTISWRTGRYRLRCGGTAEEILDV
Experiment: Assay 1: GCS Enzymatic Assay (MDCK cell lysate, C6-NBD-Ceramide, LC/MS)
Assay type: biochemical, canine
Settings: Table 2; data without asterisk; read-out: IC50 (nM) generated from Assay 1
Outline: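 LC/MS/MS measurement of glucosylceramide and NBD-ceramide after a 1 h, 37 °C reaction with 100 μM UDP-glucose and 10 μM C6-NBD-ceramide gave IC50s or percent inhibition.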

Row | Compound | IC50 [nM]
1 | CC(C)n1ncc2cc(C(=O)C(=O)N[C@H](CN3CCCC3)[C@H](O)c3ccc(OC4CC4)c(Cl)c3)ccc21 [Example 321, N-((1R,2R)-1-(3-chloro-4-cyclopropoxyphenyl)-1-hydroxy-3-(pyrrolidin-1-yl)propan-2-yl)-2-(1-isopropyl-1H-indazol-5-yl)-2-oxoacetamide] | < 50
2 | CC(C)n1ccc2cc(C(=O)C(=O)N[C@H](CN3CCCC3)[C@H](O)c3ccc(OC4CC4)c(Cl)c3)ccc21 [Example 324, N-((1R,2R)-1-(3-chloro-4-cyclopropoxyphenyl)-1-hydroxy-3-(pyrrolidin-1-yl)propan-2-yl)-2-(1-isopropyl-1H-indo1-5-yl)-2-oxoacetamide] | < 50
3 | O=C(N[C@H](CN1CCCC1)[C@H](O)c1cc(F)c2c(c1)OCCO2)C(=O)c1ccc(N2CCOCC2)cc1 [Example 325, N-((1R,2R)-1-(8-fluoro-2,3-dihydrobenzo[b][1,4]dioxin-6-yl)-1-hydroxy-3-(pyrrolidin-1-yl)propan-2-yl)-2-(4-morpholinophenyl)-2-oxoacetamide] | < 50
4 | O=C(N[C@@H](Cc1ccc(OC2CC2)c(Cl)c1)CN1CCCC1)C(=O)c1ccc(-c2ccc(F)cc2)cc1 [Example 326, (S)-N-(1-(3-chloro-4-cyclopropoxyphenyl)-3-(pyrrolidin-1-yl)propan-2-yl)-2-(4′-fluoro-[1,1′-biphenyl]-4-yl)-2-oxoacetamide] | 50 to 5000
5 | O=C(N[C@H](CN1CCC1)[C@H](O)c1ccc(OC2CC2)c(Cl)c1)C(=O)c1ccc(N2CCCC2)cc1 [Example 327, N-((1R,2R)-3-(azetidin-1-yl)-1-(3-chloro-4-cyclopropoxyphenyl)-1-hydroxypropan-2-yl)-2-oxo-2-(4-(pyrrolidin-1-yl)phenyl)acetamide] | < 50
6 | O=C(N[C@H](CN1CCCC1)[C@H](O)c1ccc(OC2CC2)c(Cl)c1)C(F)(F)CCc1ccc2cc(Cl)ccc2c1 [Example 328, N-((1R,2R)-1-(3-chloro-4-cyclopropoxyphenyl)-1-hydroxy-3-(pyrrolidin-1-yl)propan-2-yl)-4-(6-chloronaphthalen-2-yl)-2,2-difluorobutanamide] | < 50
7 | C=COc1ccc([C@@H](O)[C@@H](CN2CCCC2)NC(=O)C(=O)c2ccc(-c3ccc(F)cc3)cc2)cc1Cl [Example 329, N-((1R,2R)-1-(3-chloro-4-(vinyloxy)phenyl)-1-hydroxy-3-(pyrrolidin-1-yl)propan-2-yl)-2-(4′-fluoro-[1,1′-biphenyl]-4-yl)-2-oxoacetamide] | < 50
8 | CC(C)n1ccc2ccc(C(=O)C(=O)N[C@H](CN3CCCC3)[C@H](O)c3ccc(OC4CC4)c(Cl)c3)cc21 [Example 332, N-((1R,2R)-1-(3-chloro-4-cyclopropoxyphenyl)-1-hydroxy-3-(pyrrolidin-1-yl)propan-2-yl)-2-(1-isopropyl-1H-indo1-6-yl)-2-oxoacetamide] | < 50
9 | O=C(N[C@H](CN1CCCC1)[C@H](O)c1ccc(OC2CC2)cc1)C(=O)c1ccc(-c2ccc(F)cc2)cc1 [Example 333, N-((1R,2R)-1-(4-cyclopropoxyphenyl)-1-hydroxy-3-(pyrrolidin-1-yl)propan-2-yl)-2-(4′-fluoro-[1,1′-biphenyl]-4-yl)-2-oxoacetamide] | < 50
10 | O=C(N[C@H](CN1CCC1)[C@H](O)c1ccc(OC2CC2)c(Cl)c1)C(=O)c1cc2ccc(Cl)cc2s1 [Example 338, N-((1R,2R)-3-(azetidin-1-yl)-1-(3-chloro-4-cyclopropoxyphenyl)-1-hydroxypropan-2-yl)-2-(6-chlorobenzo[b]thiophen-2-yl)-2-oxoacetamide] | < 50
11 | CC(C)c1ccc(-c2ccc(C(=O)C(=O)N[C@H](CN3CCCC3)[C@H](O)c3ccc(OC4CC4)c(Cl)c3)cc2)cc1 [Example 339, N-((1R,2R)-1-(3-chloro-4-cyclopropoxyphenyl)-1-hydroxy-3-(pyrrolidin-1-yl)propan-2-yl)-2-(4′-isopropyl-[1,1′-biphenyl]-4-yl)-2-oxoacetamide] | < 50
12 | O=C(N[C@H](CN1CCCC1)[C@H](O)c1ccc(OC2CC2)c(Cl)c1)C(=O)c1ccc(N2CCCC2)cc1 [Example 343, N-((1R,2R)-1-(3-chloro-4-cyclopropoxyphenyl)-1-hydroxy-3-(pyrrolidin-1-yl)propan-2-yl)-2-oxo-2-(4-(pyrrolidin-1-yl)phenyl)acetamide] | < 50

Second part, the molecule after the results:

Row | IC50 [nM] | Compound
13 | < 50 | Cc1nn(C)c2ccc(-c3ccc(C(=O)C(=O)N[C@H](CN4CCCC4)[C@H](O)c4cc(F)c5c(c4)OCCO5)cc3)cc12 [Example 322, 2-(4-(1,3-dimethyl-1H-indazol-5-yl)phenyl)-N-((1R,2R)-1-(8-fluoro-2,3-dihydrobenzo[b][1,4]dioxin-6-yl)-1-hydroxy-3-(pyrrolidin-1-yl)propan-2-yl)-2-oxoacetamide]
14 | < 50 | CC(C)n1ccc2cc(C(=O)C(=O)N[C@H](CN3CCCC3)[C@H](O)c3cc(F)c4c(c3)OCCO4)ccc21 [Example 323, N-((1R,2R)-1-(8-fluoro-2,3-dihydrobenzo[b][1,4]dioxin-6-yl)-1-hydroxy-3-(pyrrolidin-1-yl)propan-2-yl)-2-(1-isopropyl-1H-indo1-5-yl)-2-oxoacetamide]
15 | < 50 | CC(C)n1cc(-c2ccc(C(=O)C(=O)N[C@H](CN3CCCC3)[C@H](O)c3cc(F)c4c(c3)OCCO4)cc2)cn1 [Example 330, N-((1R,2R)-1-(8-fluoro-2,3-dihydrobenzo[b][1,4]dioxin-6-yl)-1-hydroxy-3-(pyrrolidin-1-yl)propan-2-yl)-2-(4-(1-isopropyl-1H-pyrazol-4-yl)phenyl)-2-oxoacetamide]
16 | < 50 | CC(C)n1ccc2ccc(C(=O)C(=O)N[C@H](CN3CCCC3)[C@H](O)c3cc(F)c4c(c3)OCCO4)cc21 [Example 331, N-((1R,2R)-1-(8-fluoro-2,3-dihydrobenzo[b][1,4]dioxin-6-yl)-1-hydroxy-3-(pyrrolidin-1-yl)propan-2-yl)-2-(1-isopropyl-1H-indo1-6-yl)-2-oxoacetamide]
17 | < 50 | Cc1nn(C(C)C)c2cc(-c3ccc(C(=O)C(=O)N[C@H](CN4CCCC4)[C@H](O)c4ccc(OC5CC5)c(Cl)c4)cc3)ccc12 [Example 334, N-((1R,2R)-1-(3-chloro-4-cyclopropoxyphenyl)-1-hydroxy-3-(pyrrolidin-1-yl)propan-2-yl)-2-(4-(1-isopropyl-3-methyl-1H-indazol-6-yl)phenyl)-2-oxoacetamide]
18 | < 50 | Cc1c2ccc(-c3ccc(C(=O)C(=O)N[C@H](CN4CCCC4)[C@H](O)c4cc(F)c5c(c4)OCCO5)cc3)cc2nn1C(C)C [Example 335, N-((1R,2R)-1-(8-fluoro-2,3-dihydrobenzo[b][1,4]dioxin-6-yl)-1-hydroxy-3-(pyrrolidin-1-yl)propan-2-yl)-2-(4-(2-isopropyl-3-methyl-2H-indazol-6-yl)phenyl)-2-oxoacetamide]
19 | < 50 | Cc1c2ccc(-c3ccc(C(=O)C(=O)N[C@H](CN4CCCC4)[C@H](O)c4ccc(OC5CC5)c(Cl)c4)cc3)cc2nn1C(C)C [Example 336, N-((1R,2R)-1-(3-chloro-4-cyclopropoxyphenyl)-1-hydroxy-3-(pyrrolidin-1-yl)propan-2-yl)-2-(4-(2-isopropyl-3-methyl-2H-indazol-6-yl)phenyl)-2-oxoacetamide]
20 | < 50 | Cc1nn(C(C)C)c2cc(-c3ccc(C(=O)C(=O)N[C@H](CN4CCCC4)[C@H](O)c4cc(F)c5c(c4)OCCO5)cc3)ccc12 [Example 337, N-((1R,2R)-1-(8-fluoro-2,3-dihydrobenzo[b][1,4]dioxin-6-yl)-1-hydroxy-3-(pyrrolidin-1-yl)propan-2-yl)-2-(4-(1-isopropyl-3-methyl-1H-indazol-6-yl)phenyl)-2-oxoacetamide]
21 | < 50 | Cc1nn(C)c2cc(-c3ccc(C(=O)C(=O)N[C@H](CN4CCCC4)[C@H](O)c4ccc(OC5CC5)c(Cl)c4)cc3)ccc12 [Example 340, N-((1R,2R)-1-(3-chloro-4-cyclopropoxyphenyl)-1-hydroxy-3-(pyrrolidin-1-yl)propan-2-yl)-2-(4-(1,3-dimethyl-1H-indazol-6-yl)phenyl)-2-oxoacetamide]
22 | < 50 | Cc1nn(C)c2cc(-c3ccc(C(=O)C(=O)N[C@H](CN4CCCC4)[C@H](O)c4cc(F)c5c(c4)OCCO5)cc3)ccc12 [Example 341, 2-(4-(1,3-dimethyl-1H-indazol-6-yl)phenyl)-N-((1R,2R)-1-(8-fluoro-2,3-dihydrobenzo[b][1,4]dioxin-6-yl)-1-hydroxy-3-(pyrrolidin-1-yl)propan-2-yl)-2-oxoacetamide]
23 | < 50 | Cc1c2ccc(-c3ccc(C(=O)C(=O)N[C@H](CN4CCCC4)[C@H](O)c4cc(F)c5c(c4)OCCO5)cc3)cc2nn1C [Example 342, 2-(4-(2,3-dimethyl-2H-indazol-6-yl)phenyl)-N-((1R,2R)-1-(8-fluoro-2,3-dihydrobenzo[b][1,4]dioxin-6-yl)-1-hydroxy-3-(pyrrolidin-1-yl)propan-2-yl)-2-oxoacetamide]
24 | < 50 | COc1cc([C@@H](O)[C@@H](CN2CCCC2)NC(=O)C(=O)c2ccc(-c3ccc(F)cc3)cc2)cc(F)c1OC(C)C [Example 344, N-((1R,2R)-1-(3-fluoro-4-isopropoxy-5-methoxyphenyl)-1-hydroxy-3-(pyrrolidin-1-yl)propan-2-yl)-2-(4′-fluoro-[1,1′-biphenyl]-4-yl)-2-oxoacetamide]
